Assay in all cases: Kinase selectivity, scanMAX Kinase assay panel (DiscoverX), % control at 1 uM
Type in all cases: binding

Test [1] deals with T1, scanMAX Kinase assay panel (Homo sapiens, UniProt P52564).
T1 construct: purchased DiscoverX
T1 sequence (P52564 1-334): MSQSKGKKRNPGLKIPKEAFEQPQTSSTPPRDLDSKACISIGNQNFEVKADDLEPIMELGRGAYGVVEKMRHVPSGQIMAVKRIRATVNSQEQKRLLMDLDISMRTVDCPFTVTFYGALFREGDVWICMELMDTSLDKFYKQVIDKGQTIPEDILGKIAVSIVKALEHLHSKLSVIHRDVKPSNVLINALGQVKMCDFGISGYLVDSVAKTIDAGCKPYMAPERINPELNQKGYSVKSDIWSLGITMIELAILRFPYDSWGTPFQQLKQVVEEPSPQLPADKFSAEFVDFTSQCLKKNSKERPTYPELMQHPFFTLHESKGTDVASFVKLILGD
As to conditions: MEK6; 1 uM; read-out: Percent Control (%). In short, it runs like this: (§1)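 Read-out is percent of control, derived from the signal with compound relative to positive and negative controls: (compound − positive)/(negative − positive) × 100. Each enzyme received test drug at 1 uM in DMSO, and values under 35% count as active.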

The target in test [2] is T2, scanMAX Kinase assay panel (Homo sapiens, UniProt Q8WXR4).
T2 construct: purchased DiscoverX
T2 sequence (Q8WXR4 1-1341): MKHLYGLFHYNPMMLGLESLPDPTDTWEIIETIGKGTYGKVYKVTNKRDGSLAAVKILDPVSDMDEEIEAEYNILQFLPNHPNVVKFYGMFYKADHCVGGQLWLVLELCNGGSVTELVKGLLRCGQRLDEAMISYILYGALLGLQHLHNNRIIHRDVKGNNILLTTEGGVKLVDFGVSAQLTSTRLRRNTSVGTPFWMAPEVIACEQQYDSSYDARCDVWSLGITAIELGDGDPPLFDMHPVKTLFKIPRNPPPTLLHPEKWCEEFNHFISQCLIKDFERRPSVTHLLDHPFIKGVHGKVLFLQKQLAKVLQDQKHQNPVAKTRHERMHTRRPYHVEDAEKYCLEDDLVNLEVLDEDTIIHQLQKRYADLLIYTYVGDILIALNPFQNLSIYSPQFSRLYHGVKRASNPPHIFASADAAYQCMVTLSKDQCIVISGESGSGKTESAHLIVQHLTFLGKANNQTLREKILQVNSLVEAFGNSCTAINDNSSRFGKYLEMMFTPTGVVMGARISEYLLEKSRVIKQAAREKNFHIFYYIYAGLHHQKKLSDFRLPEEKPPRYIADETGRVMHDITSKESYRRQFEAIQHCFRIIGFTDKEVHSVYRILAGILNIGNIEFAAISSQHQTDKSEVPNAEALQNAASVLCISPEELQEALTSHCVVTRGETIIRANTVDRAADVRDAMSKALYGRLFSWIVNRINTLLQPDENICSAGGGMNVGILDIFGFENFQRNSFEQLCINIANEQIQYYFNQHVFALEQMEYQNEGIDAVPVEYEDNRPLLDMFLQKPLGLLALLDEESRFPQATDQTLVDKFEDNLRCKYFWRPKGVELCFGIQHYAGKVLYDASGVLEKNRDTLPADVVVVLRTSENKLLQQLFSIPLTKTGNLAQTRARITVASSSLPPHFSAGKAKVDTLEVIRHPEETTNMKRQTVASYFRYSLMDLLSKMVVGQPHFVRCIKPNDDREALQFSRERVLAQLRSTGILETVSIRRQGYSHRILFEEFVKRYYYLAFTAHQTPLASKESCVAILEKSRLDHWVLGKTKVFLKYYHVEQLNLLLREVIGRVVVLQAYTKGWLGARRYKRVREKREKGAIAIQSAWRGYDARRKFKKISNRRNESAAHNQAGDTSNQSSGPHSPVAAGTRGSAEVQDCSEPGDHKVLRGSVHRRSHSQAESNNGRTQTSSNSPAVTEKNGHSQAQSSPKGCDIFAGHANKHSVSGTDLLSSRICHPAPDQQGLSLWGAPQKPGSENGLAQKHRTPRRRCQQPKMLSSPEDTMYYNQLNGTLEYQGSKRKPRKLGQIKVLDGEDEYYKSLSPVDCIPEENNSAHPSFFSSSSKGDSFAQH
As to conditions: MYO3B; 1 uM; read-out: Percent Control (%). In a few lines: as §1

Test [3] addresses T3, scanMAX Kinase assay panel (Homo sapiens, UniProt P22607).
T3 construct: purchased DiscoverX
As to conditions: FGFR3; 1 uM; read-out: Percent Control (%). In short, it runs like this: as §1

The target in test [4] is T4, scanMAX Kinase assay panel (Homo sapiens, UniProt Q15835).
T4 construct: purchased DiscoverX
T4 sequence (Q15835 1-563): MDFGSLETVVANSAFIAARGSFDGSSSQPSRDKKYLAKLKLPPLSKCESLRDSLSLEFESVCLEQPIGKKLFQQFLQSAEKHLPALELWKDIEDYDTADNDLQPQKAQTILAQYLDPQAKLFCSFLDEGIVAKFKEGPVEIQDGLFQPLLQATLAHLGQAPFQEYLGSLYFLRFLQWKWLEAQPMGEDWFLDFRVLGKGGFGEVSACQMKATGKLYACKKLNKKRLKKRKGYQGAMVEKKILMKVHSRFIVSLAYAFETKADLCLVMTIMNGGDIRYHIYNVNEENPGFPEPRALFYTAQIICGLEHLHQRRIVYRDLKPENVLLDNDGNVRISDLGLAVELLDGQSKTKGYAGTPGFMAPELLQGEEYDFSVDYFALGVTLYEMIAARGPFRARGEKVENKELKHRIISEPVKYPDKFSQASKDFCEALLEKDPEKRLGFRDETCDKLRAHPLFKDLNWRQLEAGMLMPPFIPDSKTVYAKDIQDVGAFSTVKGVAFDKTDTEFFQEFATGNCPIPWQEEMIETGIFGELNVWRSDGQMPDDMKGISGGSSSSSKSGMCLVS
As to conditions: GRK1; 1 uM; read-out: Percent Control (%). In a few lines: as §1

The target in test [5] is T5, scanMAX Kinase assay panel (Homo sapiens, UniProt P37023).
T5 construct: purchased DiscoverX
Particulars: ACVRL1; 1 uM; read-out: Percent Control (%). In short, it runs like this:
as §1

In test [6] the target is T6, scanMAX Kinase assay panel (Homo sapiens, UniProt Q13882).
T6 construct: purchased DiscoverX
Particulars: BRK; 1 uM; read-out: Percent Control (%). In short, it runs like this: as §1

This note sets out measurements from patent publication US10870647B2, “Imidazopyridine derivative, method for preparing same, and pharmaceutical composition containing same as active ingredient for preventing or treating cancer” (DAEGU-GYEONGBUK MEDICAL INNOVATION FOUNDATION, priority 2016, dated 2020).

T5 sequence (P37023 22-503): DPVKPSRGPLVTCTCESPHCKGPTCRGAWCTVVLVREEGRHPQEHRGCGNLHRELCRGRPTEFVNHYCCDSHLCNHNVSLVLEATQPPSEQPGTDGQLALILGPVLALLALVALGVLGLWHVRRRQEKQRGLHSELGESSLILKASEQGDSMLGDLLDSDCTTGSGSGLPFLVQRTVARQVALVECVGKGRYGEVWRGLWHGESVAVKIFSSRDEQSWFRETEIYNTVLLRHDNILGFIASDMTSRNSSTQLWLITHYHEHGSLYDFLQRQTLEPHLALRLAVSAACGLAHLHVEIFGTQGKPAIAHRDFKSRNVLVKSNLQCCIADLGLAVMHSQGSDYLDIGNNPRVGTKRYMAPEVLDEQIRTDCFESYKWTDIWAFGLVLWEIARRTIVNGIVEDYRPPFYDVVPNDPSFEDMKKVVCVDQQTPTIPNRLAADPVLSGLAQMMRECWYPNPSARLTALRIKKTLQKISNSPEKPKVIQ
T6 sequence (Q13882 whole entry): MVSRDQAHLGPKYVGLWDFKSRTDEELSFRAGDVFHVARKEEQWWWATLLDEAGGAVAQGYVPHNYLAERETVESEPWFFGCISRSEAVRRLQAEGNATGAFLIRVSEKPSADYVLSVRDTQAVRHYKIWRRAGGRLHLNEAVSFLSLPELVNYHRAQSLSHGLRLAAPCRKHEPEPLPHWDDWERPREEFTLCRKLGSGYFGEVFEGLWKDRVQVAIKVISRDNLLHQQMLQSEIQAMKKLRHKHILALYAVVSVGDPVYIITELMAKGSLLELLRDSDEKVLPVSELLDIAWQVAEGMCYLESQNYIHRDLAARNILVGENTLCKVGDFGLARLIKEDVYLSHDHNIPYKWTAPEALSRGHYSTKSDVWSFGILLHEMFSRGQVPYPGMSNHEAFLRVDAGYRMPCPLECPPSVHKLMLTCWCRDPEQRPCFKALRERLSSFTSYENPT
T3 sequence (P22607 23-806): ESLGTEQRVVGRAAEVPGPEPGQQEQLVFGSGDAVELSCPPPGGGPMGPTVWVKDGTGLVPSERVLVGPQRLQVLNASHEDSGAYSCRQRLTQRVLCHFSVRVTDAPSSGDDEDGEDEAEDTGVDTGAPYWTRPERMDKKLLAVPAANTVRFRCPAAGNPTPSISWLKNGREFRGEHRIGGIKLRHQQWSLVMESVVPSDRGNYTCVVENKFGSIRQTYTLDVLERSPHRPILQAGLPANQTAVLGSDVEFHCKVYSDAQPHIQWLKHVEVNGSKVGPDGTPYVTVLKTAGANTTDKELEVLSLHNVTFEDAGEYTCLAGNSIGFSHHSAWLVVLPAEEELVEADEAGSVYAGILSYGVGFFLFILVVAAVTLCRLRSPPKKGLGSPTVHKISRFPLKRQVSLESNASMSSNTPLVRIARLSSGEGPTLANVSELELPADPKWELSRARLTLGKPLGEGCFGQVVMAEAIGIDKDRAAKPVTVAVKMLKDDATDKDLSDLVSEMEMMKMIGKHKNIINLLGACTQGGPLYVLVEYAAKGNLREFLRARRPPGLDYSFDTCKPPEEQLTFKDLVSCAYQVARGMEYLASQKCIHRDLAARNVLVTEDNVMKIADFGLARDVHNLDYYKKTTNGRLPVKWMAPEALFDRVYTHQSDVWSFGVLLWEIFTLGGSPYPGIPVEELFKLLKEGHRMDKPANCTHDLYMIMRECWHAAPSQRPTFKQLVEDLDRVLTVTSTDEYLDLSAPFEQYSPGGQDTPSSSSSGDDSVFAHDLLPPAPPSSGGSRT

Regarding `Cc1ccc(C(=O)Nc2ccc(CN3CCN(C)CC3)c(C(F)(F)F)c2)cc1C#Cc1cnc2c(Nc3cnn(C)c3)cccn12` [Example 1, 4-methyl-3-((8-((1-methyl-1H-pyrazol-4-yl)amino)imidazo[1,2-a]pyridin-3-yl)ethynyl)-N-(4-((4-methylpiperazin-1-yl)methyl)-3-(trifluoromethyl)phenyl)benzamide], the remaining binding at 1 µM amounted to 86% in test [1]; 35% in test [2]; 3% in test [3]; 65% in test [4]; 99% in test [5]; 23% in test [6].
For the compound `Cc1cn(-c2cc(NC(=O)c3ccc(C)c(C#Cc4cnc5c(Nc6cnn(C)c6)cccn45)c3)cc(C(F)(F)F)c2)cn1` [Example 12, 4-methyl-N-(3-(4-methyl-1H-imidazol-1-yl)-5-(trifluoromethyl)phenyl)-3-((8-((1-methyl-1H-pyrazol-4-yl)amino)imidazo[1,2-a]pyridin-3-yl)ethynyl)benzamide], the remaining binding at 1 µM was found to be 89% in test [1]; 81% in test [2]; 33% in test [3]; 85% in test [4]; 99% in test [5]; 68% in test [6].
As for `Cc1ccc(NC(=O)C2(C(=O)Nc3ccc(F)cc3)CC2)cc1C#Cc1cnc2c(Nc3cnn(C(C)C)c3)cccn12` [Example 78], the remaining binding at 1 µM in test [1] stood at 100%; in test [2], 92%; in test [3] it was 100%; in test [4], 99%; in test [5], 100%; in test [6] it was 99%.
